Legend:
[1] = target: hCA I (Homo sapiens, UniProt P00915); assay: Stopped-flow CA catalysed CO2 hydration inhibition assay, hCA I; assay type: biochemical
[2] = target: hCA II (Homo sapiens, UniProt P00918); assay: Stopped-flow CA catalysed CO2 hydration inhibition assay, hCA II; assay type: biochemical
[3] = target: hCA IX (Homo sapiens, UniProt Q16790); assay: biochemical
[4] = target: hCA XII (Homo sapiens, UniProt O43570); assay: Stopped-flow CA catalysed CO2 hydration inhibition assay, hCA XII; assay type: biochemical
Sequence of hCA XII (O43570 30-289 limits assumed): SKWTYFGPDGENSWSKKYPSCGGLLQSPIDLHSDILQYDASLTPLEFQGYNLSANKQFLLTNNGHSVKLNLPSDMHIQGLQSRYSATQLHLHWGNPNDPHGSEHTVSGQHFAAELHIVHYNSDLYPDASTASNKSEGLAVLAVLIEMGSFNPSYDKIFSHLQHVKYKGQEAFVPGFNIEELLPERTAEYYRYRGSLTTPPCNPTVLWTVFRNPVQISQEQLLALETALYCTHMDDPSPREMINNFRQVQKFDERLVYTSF

Sequence of hCA I (P00915 whole entry): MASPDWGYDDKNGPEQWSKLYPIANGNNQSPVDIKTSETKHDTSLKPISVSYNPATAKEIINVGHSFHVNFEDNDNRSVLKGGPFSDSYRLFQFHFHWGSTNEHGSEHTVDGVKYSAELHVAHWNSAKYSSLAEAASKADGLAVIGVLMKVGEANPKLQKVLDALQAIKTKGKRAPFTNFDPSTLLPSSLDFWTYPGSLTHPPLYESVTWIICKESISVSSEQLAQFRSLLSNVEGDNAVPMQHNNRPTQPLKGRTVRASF

SMILES	Ki [1]	Ki [2]	Ki [3]	Ki [4]
COc1ccc(-c2coc3c(C)c4oc(=O)c(CC(=O)O)c(C)c4cc23)cc1 [EMAC10164b, 2-(3-(4-Methoxyphenyl)-5,9-dimethyl-7-oxo-7H-furo[3,2-g]chromen-6-yl)acetic acid]	> 100 µM	> 100 µM	> 100 µM	4.59 µM
COC(=O)Cc1c(C)c2ccc(OCC(=O)c3ccc(Br)cc3)c(C)c2oc1=O [EMAC10163c, Methyl 2-(7-(2-(4-bromophenyl)-2-oxoethoxy)-4,8-dimethyl-2-oxo-2H-chromen-3-yl)acetate]	> 100 µM	> 100 µM	4.16 µM	5.43 µM
Cc1c(CC(=O)O)c(=O)oc2c(C)c3occ(-c4ccccc4)c3cc12 [EMAC10164i, 2-(5,9-Dimethyl-7-oxo-3-phenyl-7H-furo[3,2-g]chromen-6-yl)acetic acid]	> 100 µM	> 100 µM	3.18 µM	3.38 µM
COC(=O)Cc1c(C)c2ccc(OCC(=O)c3cccc(OC)c3)c(C)c2oc1=O [EMAC10163k, Methyl 2-(7-(2-(3-methoxyphenyl)-2-oxoethoxy)-4,8-dimethyl-2-oxo-2H-chromen-3-yl)acetate]	> 100 µM	> 100 µM	> 100 µM	4.86 µM
COC(=O)Cc1c(C)c2ccc(OCC(=O)c3ccc(F)cc3F)c(C)c2oc1=O [EMAC10163h, Methyl 2-(7-(2-(2,4-difluorophenyl)-2-oxoethoxy)-4,8-dimethyl-2-oxo-2H-chromen-3-yl)acetate]	> 100 µM	> 100 µM	4.51 µM	5.56 µM
Cc1c(CC(=O)O)c(=O)oc2c(C)c3occ(-c4ccc(F)cc4)c3cc12 [EMAC10164d, 2-(3-(4-Fluorophenyl)-5,9-dimethyl-7-oxo-7H-furo[3,2-g]chromen-6-yl)acetic acid]	> 100 µM	> 100 µM	0.46 µM	0.8 µM
Cc1c(CC(=O)O)c(=O)oc2c(C)c3occ(-c4ccc(-c5ccccc5)cc4)c3cc12 [EMAC10164g, 2-(3-([1,1′-Biphenyl]-4-yl)-5,9-dimethyl-7-oxo-7H-furo[3,2-g]chromen-6-yl)acetic acid]	> 100 µM	> 100 µM	0.71 µM	0.82 µM
COC(=O)Cc1c(C)c2ccc(OCC(=O)c3ccccc3)c(C)c2oc1=O [EMAC10163i, Methyl 2-(4,8-dimethyl-2-oxo-7-(2-oxo-2-phenylethoxy)-2H-chromen-3-yl)acetate]	> 100 µM	> 100 µM	> 100 µM	5.25 µM
COC(=O)Cc1c(C)c2ccc(OCC(=O)c3ccc(F)cc3)c(C)c2oc1=O [EMAC10163d, Methyl 2-(7-(2-(4-fluorophenyl)-2-oxoethoxy)-4,8-dimethyl-2-oxo-2H-chromen-3-yl)acetate]	> 100 µM	> 100 µM	2.39 µM	6.04 µM
COC(=O)Cc1c(C)c2ccc(OCC(=O)c3ccc(Cl)cc3)c(C)c2oc1=O [EMAC10163j, Methyl 2-(7-(2-(4-chlorophenyl)-2-oxoethoxy)-4,8-dimethyl-2-oxo-2H-chromen-3-yl)acetate]	> 100 µM	> 100 µM	> 100 µM	2.41 µM
Cc1c(CC(=O)O)c(=O)oc2c(C)c3occ(-c4ccc(Cl)cc4)c3cc12 [EMAC10164j, 2-(3-(4-Chlorophenyl)-5,9-dimethyl-7-oxo-7H-furo[3,2-g]chromen-6-yl)acetic acid]	> 100 µM	> 100 µM	3.22 µM	7.86 µM
COC(=O)Cc1c(C)c2ccc(OCC(=O)c3ccc(OC)cc3)c(C)c2oc1=O [EMAC10163b, Methyl 2-(7-(2-(4-methoxyphenyl)-2-oxoethoxy)-4,8-dimethyl-2-oxo-2H-chromen-3-yl)acetate]	> 100 µM	> 100 µM	0.53 µM	0.47 µM
Cc1c(CC(=O)O)c(=O)oc2c(C)c3occ(-c4ccc(F)cc4F)c3cc12 [EMAC10164h, 2-(3-(2,4-Difluorophenyl)-5,9-dimethyl-7-oxo-7H-furo[3,2-g]chromen-6-yl)acetic acid]	> 100 µM	> 100 µM	4.27 µM	6.37 µM
COC(=O)Cc1c(C)c2ccc(OCC(=O)c3cccc([N+](=O)[O-])c3)c(C)c2oc1=O [EMAC10163f, Methyl 2-(4,8-dimethyl-7-(2-(3-nitrophenyl)-2-oxoethoxy)-2-oxo-2H-chromen-3-yl)acetate]	> 100 µM	> 100 µM	> 100 µM	7.82 µM
COc1cccc(-c2coc3c(C)c4oc(=O)c(CC(=O)O)c(C)c4cc23)c1 [EMAC10164k, 2-(3-(3-Methoxyphenyl)-5,9-dimethyl-7-oxo-7H-furo[3,2-g]chromen-6-yl)acetic acid]	> 100 µM	> 100 µM	4.16 µM	3.66 µM
COC(=O)Cc1c(C)c2ccc(OCC(=O)c3ccc([N+](=O)[O-])cc3)c(C)c2oc1=O [EMAC10163e, Methyl 2-(4,8-dimethyl-7-(2-(4-nitrophenyl)-2-oxoethoxy)-2-oxo-2H-chromen-3-yl)acetate]	> 100 µM	> 100 µM	4.64 µM	7.84 µM
Cc1ccc(-c2coc3c(C)c4oc(=O)c(CC(=O)O)c(C)c4cc23)cc1 [EMAC10164a, 2-(5,9-Dimethyl-7-oxo-3-(p-tolyl)-7H-furo[3,2-g]chromen-6-yl)acetic acid]	> 100 µM	> 100 µM	> 100 µM	4.09 µM
COC(=O)Cc1c(C)c2ccc(OCC(=O)c3ccc(-c4ccccc4)cc3)c(C)c2oc1=O [EMAC10163g, Methyl 2-(7-(2-([1,1′-biphenyl]-4-yl)-2-oxoethoxy)-4,8-dimethyl-2-oxo-2H-chromen-3-yl)acetate]	> 100 µM	> 100 µM	> 100 µM	8.88 µM
COC(=O)Cc1c(C)c2ccc(OCC(=O)c3ccc(C)cc3)c(C)c2oc1=O [EMAC10163a, Methyl 2‐{4,8‐dimethyl‐7‐[2‐(4‐methylphenyl)‐2‐oxoethoxy]‐2‐oxo‐2H‐chromen‐3‐yl}acetate]	> 100 µM	> 100 µM	2.98 µM	2.52 µM
Cc1c(CC(=O)O)c(=O)oc2c(C)c3occ(-c4ccc(Br)cc4)c3cc12 [EMAC10164c, 2-(3-(4-Bromophenyl)-5,9-dimethyl-7-oxo-7H-furo[3,2-g]chromen-6-yl)acetic acid]	> 100 µM	> 100 µM	> 100 µM	4.44 µM

Reference: publication PMC11003494 (Journal of Enzyme Inhibition and Medicinal Chemistry, 2023)
